What all share (type): functional, organism-based
One assay relates to Bacillus subtilis. In words: Antimicrobial activity against Bacillus subtilis CCRC 10255 after 24 hr by broth microdilution method. For orientation: Broth dilution looks for growth in wells or tubes with falling amounts of substance.
The next assay deals with Staphylococcus aureus. In words: Antimicrobial activity against Staphylococcus aureus ATCC 25923 after 24 hr by broth microdilution method.
In the next assay the test system is Salmonella typhi. The assay can be described thus: Antimicrobial activity against Salmonella enterica subsp. enterica serovar Typhi ATCC 19430 after 24 hr by broth microdilution method.
The next assay has as its system Pseudomonas aeruginosa. The assay can be described thus: Antimicrobial activity against Pseudomonas aeruginosa ATCC 27853 after 24 hr by broth microdilution method.
A further assay concerns Shigella dysenteriae. In words: Antimicrobial activity against Shigella dysenteriae NI-51570 after 24 hr by broth microdilution method.
Another assay concerns Escherichia coli. The assay can be described thus: Antimicrobial activity against Escherichia coli ATCC 25922 after 24 hr by broth microdilution method.
A further assay relates to Proteus mirabilis. The assay can be described thus: Antimicrobial activity against Proteus mirabilis ATCC 49027 after 24 hr by broth microdilution method.

This passage reports Activity results from ChEMBL document CHEMBL3045317, “Synthesis of novel analogues on the -carbon of houttuyfonate and SAR analysis of antibacterial activity with MOPAC” (Med Chem Res, 2009).

Molecules are shown by their SMILES. The source made the active and inactive calls. The rule behind the calls is not given here.

Consider `CCCCCCCC(=O)CC=O`, for which the result with Bacillus subtilis and with Staphylococcus aureus was Active.

As to `CCCCCCCCCC(=O)CC=O`, the result with Bacillus subtilis and in the assay on Staphylococcus aureus was Active.

Consider `CCCCCCCCCCCC(=O)CC=O`, for which the outcome with Bacillus subtilis and in the assay with Staphylococcus aureus was Active.

As to `CCCCCCCC(=O)C(C=O)CC` (stereo not drawn), the result in the assay with Salmonella typhi, with Pseudomonas aeruginosa, with Shigella dysenteriae, in the assay on Escherichia coli and in the assay with Proteus mirabilis was inactive. The outcome with Bacillus subtilis and in the assay on Staphylococcus aureus was Active.
